Reference: PubChem BioAssay (NCI)
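Method: 48-hour compound exposure of cells in 96-well plates, five concentrations, linear interpolation of endpoints. Abbreviation: GI50, concentration required for 50% inhibition of growth. TGI: concentration producing complete growth inhibition.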

Legend:
Test in all cases: DTP human tumour cell line panel, 48 h
[1] = tested on: HOP-62 NSCLC
[2] = tested on: OVCAR-4 ovarian
[3] = tested on: HOP-92 NSCLC
[4] = tested on: SNB-75 CNS
[5] = tested on: UO-31 renal
[6] = tested on: NCI-H23 lung
[7] = tested on: SNB-19 CNS
[8] = tested on: NCI-H460 lung
[9] = tested on: SK-MEL-2 melanoma

Compound | GI50 [1] | TGI [1] | GI50 [2] | TGI [2] | GI50 [3] | TGI [3] | GI50 [4] | TGI [4] | GI50 [5] | TGI [5] | GI50 [6] | TGI [6] | GI50 [7] | TGI [7] | GI50 [8] | TGI [8] | GI50 [9] | TGI [9]
CCCc1nc2c(C)cc(-c3nc4ccccc4n3C)cc2n1Cc1ccc(-c2ccccc2C(=O)O)cc1 | 43.5 µM | > 100 µM | 50.6 µM | > 100 µM | 25700 nM | > 100 µM | 56 µM | > 100 µM | 19.3 µM | 51.5 µM | 51.5 µM | > 100 µM | 39.4 µM | > 100 µM | 32.5 µM | > 100 µM | 36.6 µM | 97.3 µM
COc1ccc([N+](=O)[O-])c(S(=O)(=O)c2ccc(Cl)cc2)n1 | 16.6 µM | 30.5 µM | 2.32 µM | 6.51 µM | 2000 nM | 6.17 µM | 11 µM | 23.6 µM | 2.97 µM | 10.2 µM | 4.58 µM | 29.2 µM | 13 µM | 29.2 µM | 14.6 µM | 30.1 µM | 11.4 µM | 24.3 µM
COc1cc(-n2cc(-c3ccc(Cl)cc3)[nH]c2=O)cc(OC)c1OC | 30.8 µM | 78.8 µM | 25.9 µM | 62.9 µM |  |  | 26.2 µM | 50.5 µM | 22.5 µM | 64.4 µM | 49.5 µM | > 100 µM | 32.6 µM | > 100 µM | 39.6 µM | > 100 µM | 72.6 µM | > 100 µM
COC(=O)CCC/C=C\C[C@H]1C=CC(=O)/C1=C/C[C@@H](O)C/C=C\CC(F)(F)F | 1.89 µM | 5.16 µM | 5.09 µM | 18.6 µM | 3270 nM | 7.88 µM | 12.4 µM | 29.3 µM | 1.7 µM | 3.36 µM | 1.9 µM | 4.16 µM | 2.99 µM | 14.2 µM | 3.04 µM | 10.6 µM | 2.55 µM | 7.53 µM
CSc1nc2sc3cc(Cl)ccc3n2c(=N)c1C#N | 45.4 µM | > 100 µM | 8.9 µM | > 100 µM | < 46.8 nM | 4.77 µM | 2.27 µM | > 69.6 µM | > 76.2 µM | > 100 µM | > 52 µM | > 100 µM | > 64.2 µM | > 100 µM | > 79.7 µM | > 100 µM | 15.5 µM | 48.5 µM
COc1ccc(C2=NN(C(C)=O)C(c3cn(-c4ccccc4)nc3-c3ccc(Cl)cc3)C2)cc1 (stereo not drawn) | > 100 µM | > 100 µM |  |  | 2400 nM | > 100 µM | 9.08 µM | > 100 µM | > 100 µM | > 100 µM | > 100 µM | > 100 µM |  |  |  |  | > 100 µM | > 100 µM
C[C@@H]1C=C2C(=O)O[C@@H]3CC[C@H](C1)[C@]23O | 17.8 µM | 63.1 µM | 5.45 µM | 45.3 µM |  |  | 3.33 µM | 20.2 µM | 3.74 µM | 16.7 µM | 4.33 µM | 23 µM | 22.9 µM | 93.8 µM |  | 32 µM |  | 11.4 µM
NCCNC(=S)S |  | > 100 µM |  | > 100 µM |  |  |  | > 100 µM |  | > 100 µM |  | > 100 µM |  | > 100 µM |  |  |  | > 100 µM
COC1=CC(c2ccc[nH]2)=N/C1=C\c1ccc[nH]1 | 0.27 µM | 9.27 µM | 0.316 µM | 13.3 µM | 199 nM | 1.26 µM | 0.188 µM | 1.83 µM | 0.0778 µM | 0.339 µM | 2.1 µM | 19.1 µM | 3.17 µM | 18.4 µM | 0.0595 µM | 10.9 µM | 0.218 µM | 0.809 µM
Cc1[nH]c(=O)[nH]c(=O)c1CO | > 100 µM | > 100 µM |  |  | > 100000 nM | > 100 µM | > 100 µM | > 100 µM | > 100 µM | > 100 µM | > 100 µM | > 100 µM | > 100 µM | > 100 µM | > 100 µM | > 100 µM | > 100 µM | > 100 µM
CCOC(=O)c1c(C(F)(F)F)n([O-])c2ccc(OC)cc2[n+]1=O | 3.89 µM | 21.9 µM | 5.39 µM | > 100 µM | 2510 nM | 11.9 µM | 3.55 µM | 39.8 µM | 6.68 µM | > 100 µM | 3.68 µM | 26.6 µM | 3.77 µM | 56.6 µM | 3.8 µM | 15.7 µM | 19.2 µM | 54.4 µM
O=C(Nc1c(O)[nH]c(=S)[nH]c1=O)c1ccc2ccccc2n1 |  | > 100 µM |  | > 100 µM |  | > 100 µM |  | > 100 µM |  | > 100 µM |  | > 100 µM |  | > 100 µM |  | > 100 µM |  | 
CCC(=C/[C@H](C)C/C=C/C(C)=C/[C@@H](C)C(=O)[C@@H](C)[C@H](O)[C@@H](C)CC)/C=C/[C@H]1OC(=O)C=C[C@H]1C | < 0.01 µM | 1.13 µM | < 0.01 µM | 1.29 µM | < 10 nM | 0.722 µM | < 0.01 µM | 0.0854 µM | < 0.01 µM | 1.15 µM | < 0.01 µM | 1.5 µM | < 0.01 µM | 1.29 µM | < 0.01 µM | 1.1 µM | < 0.01 µM | < 0.01 µM
C1=Cc2nc1c(-c1ccncc1)c1ccc([n-]1)c(-c1ccncc1)c1nc(c(-c3ccncc3)c3ccc([n-]3)c2-c2ccncc2)C=C1.[Zn+2] |  | > 100 µM |  | > 100 µM |  | > 100 µM |  | > 100 µM |  | > 100 µM |  | > 100 µM |  | > 100 µM |  | > 100 µM |  | > 100 µM
O=[N+]([O-])c1nccn1COCCF |  | > 100 µM |  | > 100 µM |  | > 100 µM |  | > 100 µM |  | > 100 µM |  | > 100 µM |  | > 100 µM |  | > 100 µM |  | > 100 µM
N#Cc1cc([N+](=O)[O-])ccc1NC(=O)C(=O)C(C(=O)/C=C/c1ccccc1)C1OC(=O)c2ccccc21 (stereo not drawn) |  | > 100 µM |  | > 100 µM |  | > 100 µM |  | > 100 µM |  | > 100 µM |  | > 100 µM |  | > 100 µM |  | > 100 µM |  | 
O=C(/C=C\c1ccc(Cl)cc1Cl)c1cccs1 |  | 56.2 µM |  |  |  | 69.1 µM |  | 42.2 µM |  | 25 µM |  | 44 µM |  | 33.7 µM |  | 89.5 µM |  | 35.5 µM
Cn1cc(C2=C(c3cn(CCN)c4ccccc34)C(=O)NC2=O)c2ccccc21 | 6.07 µM | > 19.7 µM | 5.66 µM | > 21.2 µM |  |  | 0.587 µM | 6.72 µM | 3.7 µM | 20.6 µM | 5.15 µM | 15.1 µM | 8.13 µM | > 25 µM | 7.54 µM | > 25 µM | 5.12 µM | 12.1 µM
Nc1ccc(/C=N/Nc2ccnc3c(N)cccc23)c2cccnc12 | 1.81 µM | 3.53 µM | 1.54 µM | 3.35 µM | 1580 nM | 3.14 µM | 1.74 µM | 3.35 µM |  |  |  |  |  |  |  |  | 1.7 µM | 3.25 µM
CCOC(=O)/C(=C/c1ccc(C#N)cc1)N(CC)CC |  | > 100 µM |  | > 100 µM |  | > 100 µM |  | > 100 µM |  | > 100 µM |  | > 100 µM |  |  |  | > 100 µM |  | > 100 µM
COc1ccc(-c2nc(-c3nc4ccc(OC)cc4[nH]3)cc3c2[nH]c2ccccc23)cc1 | 4.24 µM | > 100 µM | > 100 µM | > 100 µM |  |  |  |  | 1.66 µM | > 100 µM | 5.8 µM | > 100 µM | 3.37 µM | > 100 µM | 2.05 µM | > 100 µM | 3.31 µM | 49.2 µM
Cc1ccc(Cl)c(NC(=O)C(=O)C(C(=O)c2ccncc2)C2OC(=O)c3ccccc32)c1 (stereo not drawn) |  | > 100 µM |  | > 100 µM |  | > 100 µM |  | > 100 µM |  | > 100 µM |  | > 100 µM |  |  |  | > 100 µM |  | 
NCc1nnn(Cc2ccccc2)c1N |  | > 100 µM |  | > 100 µM |  | > 100 µM |  | > 100 µM |  |  |  | > 100 µM |  | > 100 µM |  | > 100 µM |  | > 100 µM
COc1cc(-c2cc(-c3nc4ccc(Cl)cc4[nH]3)[nH]n2)cc(OC)c1OC | 3.11 µM | 10.7 µM | 1.38 µM | 4.37 µM |  |  | 2.71 µM | 10.4 µM | 2.64 µM | 11.2 µM | 2.73 µM | 8.89 µM | 7.25 µM | 20.4 µM | 3.65 µM | 14 µM |  | 
COC(=O)[C@]1(C)CCC[C@@]2(C)C1CCC1=CC3(C(C)C)CCC12OO3 (stereo partly drawn) |  | > 100 µM |  | > 100 µM |  |  |  |  |  | > 100 µM |  | > 100 µM |  | > 100 µM |  | > 100 µM |  | > 100 µM
C=C(C)[C@@H]1CC[C@]2(C)[C@H](CC[C@@H]3[C@H]4[C@H]5OC[C@@]4(CCC5(C)C)CC[C@]32C)[C@@]1(C)CCCN | 2 µM | 4.42 µM | 2.04 µM | 3.78 µM | 1370 nM | 2.79 µM | 1.53 µM | 3.11 µM | 1.42 µM | 2.76 µM | 1.77 µM | 3.53 µM | 1.78 µM | 3.24 µM | 1.8 µM | 3.39 µM |  | 
